Test results taken from patent publication US20200138764A1, “METHODS AND DEVICES FOR ACTIVATING ADIPOSE TISSUE” (The Procter & Gamble Company, priority 2018, published 2020).

How the values were obtained:
adipocytes = test: Real Time PCR analysis of adipocytes, in vitro; assay type: cell-based, human; conditions: Real Time PCR, relative to untreated control = 1
Experimental: For Real Time PCR analysis of adipocytes, cells from cultures grown in 24 well plates were collected. RNA was isolated using RNeasy Kit (Cat 74104, Qiagen, Germantown, Md.) using manufacturer's protocol. RNA was quantitated using the Nanodrop 1000 (Thermofisher, Waltham, Mass.). cDNA formation was carried out using PowerUp SYBR™ Green Master Mix and real time PCR carried out on QuantStudio 6 machine (ThermoFisher, Waltham, Mass.) per manufacturer protocol. ΔΔCT analysis was done using the Expression Suite software (ThermoFisher) purchased with the instrument.
TABLE 2 used Real Time PCR to determine which proteins were expressed in adipocytes upon treatment with activating compounds. […] Real Time PCR values were relative to a control sample that was not treated with any activating compounds. […] In WS-5 and Menthol, no Real Time PCR value was over 2.0, which indicated only slight changes in mRNA expression.

[1] = system: Human subcutaneous pre-adipocytes; test: Lipogenesis Assay (AdipoRed staining); assay type: cell-based; conditions: AdipoRed fluorescence, NI = no inhibition at concentration less than/equal to 1 mM
Experimental: Lipogenesis is the process by which acetyl-CoA is converted to fatty acid. Through lipogenesis and subsequent triglyceride synthesis, energy can be stored in the form of adipose tissue (i.e. fats). To determine what effect, if any, activating compounds (shown in TABLE 1) had on lipogenesis, the protocol listed below was used.
To determine whether the activating compounds (shown in TABLE 1) impacted the formation of white adipocytes from pre-adipocytes, a lipogenesis assay was performed. The cells utilized in the protocol were cryo-preserved Human subcutaneous pre-adipocytes superlot (Zen-Bio, Inc., Research Triangle Park, N.C., Cat # SP-F-SL). The growth media used was PM-1 (Zen-Bio, Inc., Research Triangle Park, N.C., cat # PM-1) plus 5 ng/mL Epidermal Growth Factor (EGF). The PM-1+5 ng/mL EGF was prepared by adding 12.5 uL of 200 ug/mL EGF stock to 500 mL PM-1. The differentiation media used was DM-2 (Zen-Bio, Inc., Research Triangle Park, N.C., cat # DM-2). The adipocyte maintenance media used was AM-1 (Zen-Bio, Inc., Research Triangle Park, N.C., cat # AM-1).
First, the human subcutaneous pre-adipocyte cells were thawed in a 37° C. water bath. Next, the thawed pre-adipocyte cells were added to 9 mL of growth medium (PM-1) at 20° C. in a 15 mL polypropylene tube (Bioexpress, Corning, Corning, N.Y.). The tube was centrifuged at 280×g (˜1100 rpm) at 20° C. for 5 min. After 5 min, the supernatant was removed and the accumulated solids were re-suspended in 2 mL of PM-1 using trituration. The suspension of cells was counted under 100× magnification using a Cyto C-Chip hemacytometer (Incyto, Seoul, South Korea, cat # DHC-N01-5). In order to proceed, 15-50 cells per 1×1 mm square in hemacytometer was needed. If, the number of cells per square was not met, 6.7×10^5 (670,000) cells per T75 flask (Bioexpress, Corning, Corning, N.Y.) were added to each square and the suspension was diluted to 20 mL with PM-1. Every other day, new media was added to replace media removed due to metabolism by the cells. The cells were re-counted as described previously. Cells were grown to 80-90% confluence, which took approximately 4-5 days. 80-90% confluence is determined by visual inspection of the area of the flask occupied by the cells. When 80-90% of the flask area has been occupied, cells are at 80-90% confluence. Cell colonies were then split 1:6 by harvesting from a single flask and equally dividing the harvested cells into six flasks. Colonies were not allowed to exceed 3 passages and were not grown to complete confluence. The pre-adipocytes were grown until they contact with other cells in the flask to aid differentiation into white or brown adipocytes.
After the pre-adipocytes were sufficiently grown to 90% confluence, the cells were ready for differentiation and treatment with an activating compound. Cells were washed with 3 mL of PBS and detached using 3 mL of Trypsin EDTA. The cells were incubated at 37° C. for 5 minutes. Next, the cells were centrifuged at 280×g at 20° C. for 5 minutes. The supernatant was discarded and the resulting pellet was re-suspended in 10 mL of PM-1 using trituration. Cells were counted at 100× magnification and the cells were diluted to 86,667 cells/mL (˜13,000 cells/150 μL) by adding the necessary amount of PM-1 to achieve the desired concentration. Upon addition of PM-1, samples were swirled by hand to evenly disperse the cells prior to plating.
Once confluence is reached, 150 μL of differentiation media (DM-2) was added (DAY 0). Samples were incubated at 37° C. for 6 days. On DAY 6, 90 μL of media was removed from each sample via aspiration, without touching the bottom of the well. Next, 140 μL of adipocyte maintenance medium (AM-1) was added. The AM-1 ran down the side of well. On DAY 6, activating compounds were added (2 μL of 10 mM activating compound) to give a final concentration of 100 μM of activating compounds. […]

| Lipogenesis IC50 [1] | IC50 ([1]; Homo sapiens) [µM] | IC50 [1] [µM] | Structure (SMILES) | Relative Expression of mRNA in Adipocytes: 18S (adipocytes) | Relative Expression of mRNA in Adipocytes: ACADM (adipocytes) | Relative Expression of mRNA in Adipocytes: CPT1A (adipocytes) | Relative Expression of mRNA in Adipocytes: FASN (adipocytes) | Relative Expression of mRNA in Adipocytes: GAPDH (adipocytes) | Relative Expression of mRNA in Adipocytes: PPARGC1A (adipocytes) | Relative Expression of mRNA in Adipocytes: PRDM16 (adipocytes) | Relative Expression of mRNA in Adipocytes: UCP-1 (adipocytes) |
| --- | --- | --- | --- | --- | --- | --- | --- | --- | --- | --- | --- |
| no inhibition | > 1000 | – | CC1CCC(C(C)C)C(O)C1 (stereo not shown) [Menthol] | 1 | 1.45 | 1.35 | 1.45 | 1 | 2.0 | 0.75 | 1.7 |
| – | 25 | – | CC(C)[C@@H]1CC[C@@H](C)C[C@H]1C(=O)NC[C@@H](NC(=O)[C@H](C)N)c1ccccc1 [Formula III] | 1 | 1.75 | 1.7 | 1.85 | 1 | 0.8 | 0.6 | – |
| – | 500 | 600 | CCOC(=O)CNC(=O)[C@@H]1C[C@H](C)CC[C@H]1C(C)C [WS-5] | 0.85 | 1.45 | 1.5 | 2.0 | 1 | 1.7 | 1.3 | 1.5 |
